“Also recorded” adds a separate entry of the source. Like-named read-outs stand apart in the source and are kept apart here. Values belong to the substance of their own block, whether it stands above or below them.
How the values were obtained:
[1] = Bleeding time after tail incision in rats; format: in vivo, Sprague-Dawley rats; conditions: for Estimated equipotent doses with respect to effects on bleeding time, normalized vs. heparin: rats, i.v. dosing, heparin = 1
Experimental: (§1) Test procedures were as follows:
The incision was 9 mm long and 1 mm deep and was standardized using a template device. Blood was blotted from the incision until bleeding stopped. The time during which visible bleeding could be observed was measured, for up to 25 minutes. The longer the bleeding time, the more pronounced the anti-coagulant effects of the administered agent.
(§2) Saline: (Negative Control) • 3.

[2] = tested on: SS RBC adhesion to endothelial cells treated with IL-13 and histamine; experiment: In vitro sickle red blood cell adhesion to HUVECs in flow chamber; format: cell-based, human; conditions: for Inhibition of SS RBC adhesion to endothelial cells (overall): HUVECs stimulated with IL-13 and histamine
Experimental: Primary HUVECs (passage 4 only) were cultured to confluency on gelatin-coated slides in […] basal medium 2 (EBM2; Clonetics, Walkersville, Md.) supplemented with endothelial growth medium 2 (EGM2; Clonetics, Walkersville, Md.). For each assay, a gelatin coated slide with HUVECs grown to confluence was mounted inside a graduated height flow chamber. Both untreated and IL-13/histamine-stimulated slides were initially studied with each SS RBC sample. Subsequent experiments then compared adhesion with and without potential inhibitors of adhesion.
Human blood samples from patients homozygous for hemoglobin S were collected into citrate tubes.
In vitro studies of cell adhesion exposed to flowing conditions represent in vivo events, as compared to adhesion assays in which cells are simply allowed to incubate overlaid on a chemical or cellular substrate (e.g. laminin or endothelial cells) and then washed off by either non-controlled forces (e.g. pipette washes) or controlled forces (e.g. rotary motion devices). Flow chambers can produce either a constant shear stress throughout the chamber or a variable shear stress, produced by creating a variable height for the chamber.
Surface expression of P-selectin on IL-13 and histamine stimulated and unstimulated endothelial cells (HUVECs) were tested by flow cytometry. Measurement of the ability of SS RBC to adhere to these endothelial cells was performed in flow chambers. Negative control experiments included untreated endothelial cells, so that SS RBC adhesion to treated and untreated cells could be compared.
Multiple dose-finding experiments were conducted.

factor IIa [3] = target: T1, factor IIa (Homo sapiens, UniProt P00734+P01008); conditions: measured values on the produced DF02
[4] = tested on: SS RBC adhesion to the endothelium
Source text: These experiments utilize a previously described animal model (Zennadi et al. Blood 2007), in which window chambers are first implanted into the flanks of nude mice. Three to five days later, human normal or sickle red cells are infused into the mouse (usually through the tail vein) pre-treated with TNF-α (to induce inflammation and upregulate P-selectin expression); mice treated with vehicle only may be studied as controls. Female mice (nu−/nu−) 8-12 weeks in age from Jackson Laboratories, Bar Harbor, Me., were used to perform experiments described.
RBCs to be infused are pre-labelled with a fluorescent dye. The cells' adhesion may then be observed in subdermal blood vessels visible through the previously implanted window chambers. […] In addition, in some of these experiments, blood samples were drawn during the observation period in order to quantitate specific variables, such as cell survival. This model has the great advantages of providing direct visualization of cells in the context of whole blood and of allowing circulation of transfused cells under normal circulatory pressures.

[5] = APTT in citrate plasma of dosed rats; format: in vivo, Sprague-Dawley rats; conditions: i.v. dosing, heparin = 1
Experimental: as §1
Citrate stabilized plasma was prepared from the blood.
as §2

human P-selectin = target: T2, human P-selectin (Homo sapiens, UniProt P16109); experiment: Binding to P-selectin analyzed by optical biosensor (surface plasmon resonance, Biacore 2000); conditions: read-out: apparent KD
T2 construct: Fc (IgG Fc fusion partner)
T2 sequence (P16109 with tags, fused parts or gaps limits assumed): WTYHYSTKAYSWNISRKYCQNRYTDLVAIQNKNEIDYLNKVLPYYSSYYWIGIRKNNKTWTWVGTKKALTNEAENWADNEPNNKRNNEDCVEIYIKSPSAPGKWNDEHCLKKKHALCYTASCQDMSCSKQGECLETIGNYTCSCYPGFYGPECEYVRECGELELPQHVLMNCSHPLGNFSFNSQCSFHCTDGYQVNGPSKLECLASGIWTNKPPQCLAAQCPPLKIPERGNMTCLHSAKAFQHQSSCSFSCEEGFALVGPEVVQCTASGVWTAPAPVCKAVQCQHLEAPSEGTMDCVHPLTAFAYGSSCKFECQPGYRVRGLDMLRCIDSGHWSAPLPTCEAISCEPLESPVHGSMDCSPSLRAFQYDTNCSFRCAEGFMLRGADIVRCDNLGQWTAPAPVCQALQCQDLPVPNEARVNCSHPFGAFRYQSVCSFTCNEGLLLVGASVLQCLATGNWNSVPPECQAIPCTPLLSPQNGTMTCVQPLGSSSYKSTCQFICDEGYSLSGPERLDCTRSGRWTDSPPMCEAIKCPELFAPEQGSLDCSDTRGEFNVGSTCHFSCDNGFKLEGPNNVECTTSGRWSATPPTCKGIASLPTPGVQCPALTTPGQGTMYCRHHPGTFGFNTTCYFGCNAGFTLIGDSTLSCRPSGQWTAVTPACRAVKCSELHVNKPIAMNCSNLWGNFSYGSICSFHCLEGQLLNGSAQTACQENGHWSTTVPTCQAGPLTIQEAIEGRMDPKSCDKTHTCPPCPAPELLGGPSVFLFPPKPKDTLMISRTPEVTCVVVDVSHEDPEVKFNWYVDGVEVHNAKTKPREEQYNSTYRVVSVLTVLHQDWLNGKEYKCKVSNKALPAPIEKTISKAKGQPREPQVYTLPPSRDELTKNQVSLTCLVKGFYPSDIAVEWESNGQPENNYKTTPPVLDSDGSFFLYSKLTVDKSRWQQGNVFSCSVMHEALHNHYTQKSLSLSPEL
Experimental: The heparin derivatives were desalted and transferred into running buffer using desalting columns. The molar concentrations of the eluates were determined by analysis of UA content (mg/ml) using the phenylphenol method (Blumenkrantz et al. 1973 Anal Biochem 54, 484-9). […] The data was analyzed using BIAevaluation software, version 3. To prepare the biosensor assay, the capturing affinity purified goat anti-human IgG Fc antibody was immobilized onto a carboxymethyl dextran chip. The antibody was injected at a concentration of 50 μg/ml in 50 mM sodium acetate buffer, pH 5.0 for 12 min at […] resulting in a final response of approximately 16,200 response units (RU) in flow cell 1 and 13,400 RU in flow cell 2. Remaining activated groups were blocked with an injection of ethanolamine-HCl. The P-selectin/Fc chimera was captured onto the antibody surface in flow cell 2 (Bachelet L. et al. 2009, Biochim et Biophys Acta 1790, 1416), by injecting the molecule at a concentration of 35 ug/mL, using running buffer (10 mM Hepes, 150 mM NaCl, 1 mM CaCl2, 0.005% Tween-20, pH 7.4, filtered 0.02 μm) in the mobile phase. […] The binding of different heparin derivatives to P-selectin was analyzed using running buffer at 20 μl/min. After the association and dissociation phase of each sample, regeneration of the surface was performed using running buffer containing 0.8 M NaCl. Data from the reference surface was subtracted from the data from the P-selectin surface. Stability of the P-selectin surface was verified by measuring the response from injections of 0.1 mg/mL heparin in the beginning and the end of each experiment.
The response data at steady-state was plotted against the concentration (data not shown). The data was analyzed using non-linear regression, assuming 1:1 binding. […] The peak value (Mp) was used instead of the (higher) Mw value when calculating the molar concentrations of UFH.

factor Xa [6] = conditions: measured values on the produced DF02
[7] = cited from earlier work
[8] = daily prophylactic dose, four patients; cited from earlier work
factor Xa [9] = conditions: comparison value; cited from earlier work
factor IIa [10] = target: T1, factor IIa; conditions: comparison value; cited from earlier work
[11] = injected before and after induction of vaso-occlusion
[12] = steady-state response, non-linear regression assuming 1:1 binding, P-selectin/Fc chimera captured on chip

Substance: sevuparin sodium [DF02]
Anti-coagulant effect (bleeding time and coagulation parameters) ([1]; adult rats, i.v.): reduced anti-coagulant effect | Anti-coagulant effect (bleeding time and coagulation parameters) ([1]; juvenile rats of age 14±1 days): reduced anti-coagulant effect | Estimated equipotent doses with respect to effects on bleeding time, normalized vs. heparin [1]: 30-50 | Effect on SS RBC adhesion ([2]; 100 μg/ml): appeared to inhibit adhesion as much as did higher concentrations; also recorded: easily detectable | Inhibition of SS RBC adhesion compared to tinzaparin ([2]; 400 μg/ml, most samples): equivalent to the same concentration of tinzaparin | Effect on SS RBC adhesion ([2]; 10 and 50 μg/ml): little effect | Inhibition of SS RBC adhesion to endothelial cells (overall) [2]: able to inhibit SS RBC adhesion | antiIIa activity (factor IIa [3]): less than 10 IU/mg | Vessel occupancy, decrease ([4]; as compared to a saline injection): 50% | Effect on adhered SS-RBC [4, 11]: inhibition and reversal of adhered SS-RBC | Effect on blood flow [4, 11]: partial normalization of the blood flow | Number of vessels that reached a normalized blood flow ([4]; mouse, in vivo): dose dependent effect | Effect on PT (adult rats): too weak to allow for comparative estimates | Effect on PT (juvenile rats): weak | Estimated equipotent doses with respect to effects on APTT, normalized vs. heparin [5]: 30-40 | Kd (human P-selectin): 700 nM | antiXa activity (factor Xa [6]): less than 10 IU/mg

Kd (human P-selectin; [12]): 4000 nM
Substance: Tinzaparin natrium
Inhibition of SS RBC adhesion to endothelial cells (overall) [2]: quite effective in reducing SS RBC adhesion | Bleeding events ([7]; clinical study): several cases of bleeding events | Duration of hospitalization ([7]; sickle VOC): significantly shortened | Duration of the most-severe pain scores ([7]; sickle VOC): significantly shortened

Estimated equipotent doses with respect to effects on bleeding time, normalized vs. heparin [1]: 1 | Estimated equipotent doses with respect to effects on APTT, normalized vs. heparin [5]: 1 | Kd (human P-selectin; [12]): 200 nM
Substance: Heparin Sodium
Anti-coagulant effect (bleeding time and coagulation parameters) ([1]; adult rats, i.v.): profound dose-related effects on all parameters investigated | Pain and days at hospital [8]: pain reduction and fewer days at hospital | Corresponding value of specific anticoagulant activity (anti-factor Xa) (factor Xa [9]): at least 180 IU/mg | Corresponding value of specific anticoagulant activity (anti-factor IIa) (factor IIa [10]): at least 180 IU/mg
